Measured values from PubChem BioAssay (NCI).
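Interpolation was linear, between the two tested concentrations surrounding the appropriate level; five concentrations were tested over 48 hours in 96-well plates. GI50 marks 50% less growth. The concentration for full growth arrest is given as TGI.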

What was measured:
Assay in all cases: growth of human tumour cells (NCI), 48 h
RXF 393 renal = test system: RXF 393 renal
HOP-92 NSCLC = test system: HOP-92 NSCLC
UACC-257 melanoma = test system: UACC-257 melanoma
KM12 colon = test system: KM12 colon
HCT-15 colon = test system: HCT-15 colon
K-562 leukemia = test system: K-562 leukemia
U251 CNS = test system: U251 CNS
NCI-H226 lung = test system: NCI-H226 lung
SW-620 colon = test system: SW-620 colon
CAKI-1 renal = test system: CAKI-1 renal

Row | Structure (SMILES) | GI50 (RXF 393 renal) [µM] | TGI (RXF 393 renal) [µM] | GI50 (HOP-92 NSCLC) [µM] | TGI (HOP-92 NSCLC) [µM] | GI50 (UACC-257 melanoma) [µM] | TGI (UACC-257 melanoma) [µM] | GI50 (KM12 colon) [µM] | TGI (KM12 colon) [µM] | GI50 (HCT-15 colon) [µM] | TGI (HCT-15 colon) [µM] | GI50 (K-562 leukemia) [µM] | TGI (K-562 leukemia) [µM] | GI50 (U251 CNS) [µM] | TGI (U251 CNS) [µM] | GI50 (NCI-H226 lung) [µM] | TGI (NCI-H226 lung) [µM] | GI50 (SW-620 colon) [µM] | TGI (SW-620 colon) [µM] | TGI (CAKI-1 renal) [µM] | GI50 (CAKI-1 renal) [µM]
1 | Cc1n(Cc2ccc3ccccc3c2)cc[n+]1Cc1ccc2ccccc2c1 | 0.857 | 3.4 | 0.673 | 3.64 | 0.588 | 2.58 | 0.592 | 2.04 | 11.3 | 25.1 | 0.478 | 4.51 | 0.818 | 7.98 | 1.85 | 10.4 | 1.77 | 11.7 |  | 
2 | O=C(O)c1ccccc1-c1ccccc1C(=O)Nc1ccc2c(c1)Cc1cc(F)ccc1-2 |  | > 100 |  | > 100 |  | 52.2 |  | > 100 |  | 38 |  |  |  | 50.2 |  | > 100 |  | > 100 | > 100 | 
3 | COC(=O)C12C3C4C5(C(=O)OC)C(C1C35C(=O)N(C(C)C)C(C)C)C42C(=O)N(C(C)C)C(C)C (stereo not drawn) |  | > 50 |  | > 50 |  | > 50 |  | > 50 |  | > 33.7 |  | > 50 |  | > 50 |  | > 50 |  | > 43.6 | > 50 | 
4 | O=C(/C=C/c1c(O)ccc2ccccc12)c1ccc2ccccc2c1 |  | > 100 |  | > 100 |  | > 100 |  | > 100 |  | > 100 |  | > 100 |  | > 100 |  | > 100 |  | > 100 | > 100 | 
5 | CCN(CC)CC(C)(C)C(=O)/C=C/c1ccc(Cl)c(Cl)c1 | 1.59 | 3.1 | 0.418 | 1.85 | 2.07 | 3.64 | 1.67 | 3.28 | 1.42 | 2.92 | 1.1 | 6.29 | 1.71 | 3.15 | 1.71 | 3.35 | 1.76 | 4.21 | 2.74 | 1.35
6 | N#C/C(=C\c1ccc(O)c(O)c1)C(N)=O |  | 51.6 |  | > 100 |  | > 100 |  | > 100 |  | > 100 |  | > 100 |  | > 100 |  | > 100 |  | > 100 | > 100 | 
7 | CC1=C(C(=O)Nc2c(C)cccc2C)C(c2ccccc2Cl)C(C(=O)Nc2c(C)cccc2C)=C(C)N1 |  | > 100 |  | > 100 |  | > 100 |  | > 100 |  |  |  | > 100 |  | > 100 |  | > 100 |  | > 100 | > 100 | 
8 | CCN1C(=O)N(CC)C2C1NC(=S)N2/N=C/C=C/c1cccs1 (stereo not drawn) | 0.182 | > 100 | 13.4 | > 100 |  | > 100 | 0.312 | > 100 | 0.307 | > 100 | 0.263 | > 100 | 0.342 | > 100 | 2.06 | > 28.3 | 0.355 | > 100 | > 100 | 0.248
9 | COc1ccc(-n2cc(-c3ccc(Cl)c(Cl)c3)nc2SCc2cccc(C#N)c2)cc1 | 13.6 | 41 | 10.1 | 40.3 | 66.9 | > 100 | > 100 | > 100 | 42.8 | > 100 | > 100 | > 100 | 26.8 | > 100 | 77 | > 100 | 60 | > 100 | 48.8 | 18
10 | Cc1ccc(N(CSc2ccc(Cl)cc2)CSc2ccc(Cl)cc2)cc1 | 1.73 | 7.57 | 1.3 | 6.73 | 3.72 | > 100 | 0.51 | 12.5 | 2.12 | 15.3 |  |  | 0.581 | 11.2 | 1.09 | 2.45 | 2.22 | 11.5 | 8.16 | 0.829
11 | N#CC(/C(=N/NC(=O)C(=O)NN)C(=O)NC12CC3CC(CC(C3)C1)C2)c1ccccc1 (stereo not drawn) |  | > 100 |  | > 100 |  | > 100 |  | > 100 |  | > 100 |  | > 100 |  | > 100 |  | > 100 |  | > 100 | > 100 | 
12 | Cc1ccc(Nc2nc(N)c(C(=O)c3ccc(C#N)cc3)s2)cc1 | 0.398 | 7.44 | 0.478 | 32.4 | 33.3 | > 100 | 0.338 | > 87.1 | 0.202 | > 100 | 0.0685 | > 100 | 0.434 | > 87.3 | 1.6 | > 93.5 | 0.336 | > 100 | 25 | 0.402
13 | O=C1/C(=C\c2cccn2Cc2ccccc2)c2ccccc2N1c1c(Cl)cccc1Cl | > 100 | > 100 | 1.52 | 28.8 | > 100 | > 100 | 0.866 | > 53.4 | 0.885 | > 100 | > 100 | > 100 | > 100 | > 100 | 14.9 | > 100 | > 100 | > 100 | > 100 | > 28.9
14 | CC(C)(C)N1CC2(CCCCC2)C1=O |  | > 100 |  | > 100 |  | > 100 |  | > 100 |  | > 100 |  | > 100 |  | > 100 |  | > 100 |  | > 100 | > 100 | 
15 | CC(=O)OCC1OC([S-])C(OC(C)=O)C(OC(C)=O)C1OC(C)=O.CC[PH+](CC)CC.CC[PH+](CC)CC.[Au].[Au] (stereo not drawn) | 0.0434 | 0.197 | 0.28 | 0.584 | 0.214 | 0.937 | 1.04 | 2.66 | 0.165 | 0.452 | 0.0834 | 0.337 | 0.149 | 0.306 | 0.244 | 1.7 | 0.199 | 0.493 | 0.987 | 0.292
